Like-named read-outs stand apart in the source and are kept apart here. Non-standard residues stand in square brackets, D forms with d. Residues, ends and D or L forms follow the SMILES beside them. Groups on a side chain read outwards from the residue. *: point of attachment. 2Nal = N[C@@H](Cc1ccc2ccccc2c1)C(=O)O; dNMeOrn = CN[C@H](CCCN)C(=O)O; 4Abz = Nc1ccc(C(=O)O)cc1; X1 = NCCNCC(CNCCN)C(=O)*; dDap = NC[C@@H](N)C(=O)O
Legend:
[1] = test system: CXCR4-expressing Chem_1 cells; test: Determination of internalization, dual tracer with 125I-Fc-131; format: cell-based; details: for Cell-bound [%] / Internalized [%]: of total cellular activity
Summary of the method: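 Receptor blockade used AMD3100 (1 mM stock) versus medium-treated wells, triplicate per time point, in Chem_1 cells cultured at 37 °C in DMEM-F12/10% FBS. Activity of supernatant, surface-bound and internalized (1 M NaOH) fractions measured by γ-counter, corrected for non-specific uptake and normalised to standard ligand.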

[2] = Octanol/PBS partition coefficient (logD7.4); format: physicochemical; details: n-octanol/PBS pH 7.4, radiolabeled compound
Description: The tubes were vortexed at maximum speed for 3 min to ensure equilibrium before centrifugation at 15.000×g for 5 min on a Biofuge 15 from Heraeus Holding GmbH (Osterode, Germany). An aliquot of 100 μL of each fraction was measured in the γ-counter and the log D7.4 calculated as follows: […]

[3] = Biodistribution in Jurkat tumor-bearing CB-17 SCID mice; format: in vivo; details: female, CB-17 SCID, mouse, in vivo, iv, total radioactivity, 1 h p.i., Jurkat xenograft, CB-17 SCID female mice
Summary of the method: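 Radioligand (125I, 177Lu, 99mTc, 18F or 68Ga label; roughly 0.5-20 MBq, 0.02-0.20 nmol) was injected intravenously via tail vein. Hosts were CB17-SCID mice with subcutaneous Jurkat tumors of 5-8 mm, 4-10 weeks post-inoculation. Dissected organs were weighed and counted in a γ-counter.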

[4] = Description: The radiosynthesis of [^99mTc]CXCR4-Tc-14 was performed manually, as described in chapter 4.2.3 above. Images were acquired after injection of 430-604 MBq of [^99mTc]CXCR4-Tc-14 at 5 min to 21 h p.i. Details of the scanning procedure are set out below.
Clinical evaluation of [^99mTc]CXCR4-Tc-14 in patients was conducted under compassionate use in compliance with the German Medicinal Products Act, AMG § 13 2b, and in accordance with the responsible authorities (Government of Oberbayern). First proof-of-concept studies were performed at the Universitätsklinikum Augsburg (Augsburg, Germany).
All subjects were examined on a Discovery MN CT 670 Pro equipped with an Optima 540 CT (GE Healthcare, Solingen, Germany). Full-body SPECT/CT scans at 5 and 60 min after tracer injection were acquired with a scanning speed of 30 cm/min, scans at 120 and 300 min were acquired with a scanning speed of 12 cm/min and scans at 21 h were acquired with a scanning speed of 5 cm/min. The scans were obtained in 60 subsets using the double-head technology in matrices of 128×128 (zoom 1). SPECT scans at 60 and 180 min after tracer injection were acquired with an exposure time of 8 sec per subset and scans at 21 h were acquired with an exposure time of 16 sec per subset. Emission data were smoothed applying a Butterworthfilter (0.48) and reconstructed iteratively by an ordered-subsets expectation maximization algorithm (2 iterations, 10 subsets). Images were obtained after injection of 430-604 MBq of [^99mTc]CXCR4-Tc-14 at 5 min to 21 h p.i.
The specific and effective doses in selected organs were analyzed. For calculation of the doses, voxels of interest were defined around areas with increased uptake in full-body images. Time-activity curves for the respective organs were automatically determined and the residence time of the tracer calculated using the specific calibration of the SPECT camera and a standard activity value. The residence time was used as the input data for the Olinda/EXM software. The output of this calculation was referred to the dosimetry guideline of the International Commission on Radiological Protection.

CXCR4 [5] = target: T1, CXCR4 (Homo sapiens, UniProt P61073); test: Determination of inverse IC50 (invIC50): radiolabeled peptide displaced by Fc-131 on Jurkat cells; details: read-out: invIC50; radiolabeled compound displaced by Fc-131, Jurkat cells
Description: For in vitro experiments, cells were counted in a hemocytometer using trypan blue as contrast agent. The cell suspension was centrifuged, and the pellet resuspended in HBSS (+1 wt % BSA) to a concentration of 2 mio cells/mL. 8×3 polystyrene tubes were loaded with 25 μL of the standard ligand ^125I-Fc-131 (see 4.1, 1.00 nM in HBSS) and 25 μL of the ligand to investigate in the respective concentration (10^−4-10^−10 M, n=3 for each concentration). 200 μL of cell suspension (400.000 cells per well) were added to obtain a final peptide concentration range of 10^−5-10^−11 M. The tubes were cooled for 2 h at 8° C. to prevent internalization. The experiment was stopped by removal of the supernatant. 200 μL HBSS were added onto the cells, the suspension centrifuged, and the supernatant pooled with the respective first fractions. This step was repeated once more before the tubes containing the supernatants and the ones containing the cell pellets were subjected to activity measurement in the γ-counter.
For the determination of inverse IC50 (invIC50) values the protocol for the determination of regular IC50 values was resumed with minor changes. The peptide under investigation was radioactively labeled and a stock solution was prepared in HBSS (2.00 nM). A concentration gradient of the standard ligand Fc-131 was prepared in HBSS (10^−4-10^−10 M). A cell tube was then containing 25 μL of the radioactive peptide solution, 25 μL of the respective Fc-131 solution and 200 μL cell suspension (400.000 cells). The experiment was conducted as described above.

U2932 cells [6] = details: 10, 20, 40, 100 nM, 24-96 h
Description: (§1) Two cell lines were selected for the respective experiments. The B-cell lymphoma cell line U2932 and the higher CXCR4 expressing lymphoblast-like Raji cell line. Both cell lines were incubated with the PDC for 24, 48, 72 and 96 hours in varying concentrations of 0 (Blank), 10, 20, 40 and 100 nM.

U2932 cells [7] = details: 72 h, increasing amounts of PDC
Description: For that purpose, cells were fixed, permeabilized and treated with propidium iodide. The number of cells in the G0/G1-, S— and G2/M-phase was then measured with regards to the amount of PDC used.

CXCR4 [8] = target: T1, CXCR4; test: Determination of IC50: competition with 125I-Fc-131 on CXCR4-positive Jurkat cells; format: binding; design: CXCR4-positive Jurkat T lymphocyte cells were grown in Gibco's RPMI 1640 GlutaMAX medium; endogenous in cells; host or cells: Jurkat T lymphocyte cells (whole cells in suspension, 400.000 per tube);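 note: test compound at 10^−5 to 10^−11 M competed for 2 h at 8 °C with the radioligand on 400,000 cells per well, bound versus free activity measured by γ-counting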
Description: For in vitro experiments, cells were counted in a hemocytometer using trypan blue as contrast agent. The cell suspension was centrifuged, and the pellet resuspended in HBSS (+1 wt % BSA) to a concentration of 2 mio cells/mL. […] 200 μL of cell suspension (400.000 cells per well) were added to obtain a final peptide concentration range of 10^−5-10^−11 M. The tubes were cooled for 2 h at 8° C. to prevent internalization. The experiment was stopped by removal of the supernatant. 200 μL HBSS were added onto the cells, the suspension centrifuged, and the supernatant pooled with the respective first fractions. This step was repeated once more before the tubes containing the supernatants and the ones containing the cell pellets were subjected to activity measurement in the γ-counter.

[9] = patient, multiple myeloma, 604 MBq

T1 sequence (P61073 whole entry): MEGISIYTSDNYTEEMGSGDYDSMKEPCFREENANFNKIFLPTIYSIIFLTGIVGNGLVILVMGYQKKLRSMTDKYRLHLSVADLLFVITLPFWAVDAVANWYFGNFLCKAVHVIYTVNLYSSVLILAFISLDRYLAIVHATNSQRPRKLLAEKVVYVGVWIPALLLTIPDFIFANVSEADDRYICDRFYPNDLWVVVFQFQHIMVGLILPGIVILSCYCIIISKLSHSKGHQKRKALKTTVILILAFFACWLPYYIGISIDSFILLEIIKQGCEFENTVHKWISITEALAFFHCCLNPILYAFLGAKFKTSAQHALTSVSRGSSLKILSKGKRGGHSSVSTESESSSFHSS
Description for Raji cells: as §1

C[C@@H](NC(=O)[C@@H](CCCNC(=N)N)NC(=O)[C@@H](CN)NC(=O)C(CNCCN)CNCCN)C(=O)Nc1ccc(C(=O)NCCC[C@@H]2C(=O)N[C@@H](CCCNC(=N)N)C(=O)N[C@@H](Cc3ccc4ccccc4c3)C(=O)NCC(=O)N[C@H](Cc3ccc(O)cc3)C(=O)N2C)cc1 [Tc-CXCR4-14] (cyclo([dY][dNMeOrn]([4Abz-dA-dR-dDap-X1])R[2Nal]G))
Internalized in relation to 125I-Fc-131 [%] ([1]; 10 min): 486 ± 18.9%
Cell-bound [%] ([1]; 10 min): 0.67 ± 0.14%
Internalized [%] ([1]; 10 min): 17.9 ± 0.59%
Internalized in relation to 125I-Fc-131 [%] ([1]; 30 min): 683 ± 51.3%
Cell-bound [%] ([1]; 30 min): 1.56 ± 0.41%
Internalized [%] ([1]; 30 min): 30.2 ± 0.74%
Internalized in relation to 125I-Fc-131 [%] ([1]; 60 min): 742 ± 45.2%
Cell-bound [%] ([1]; 60 min): 0.91 ± 0.14%
Internalized [%] ([1]; 60 min): 36.4 ± 0.20%
Internalization [% Fc-131] ([1]; 120 min): 666 (120 min) % Fc-131
Internalized in relation to 125I-Fc-131 [%] ([1]; 120 min): 694 ± 42.5%
Cell-bound [%] ([1]; 120 min): 1.11 ± 0.48%
Internalized [%] ([1]; 120 min): 37.9 ± 0.56%
Internalization (in % of 125I-FC-131) ([1]; time not given): 742%
logD7.4 ([2]; listed as [^99mTc]CXCR4-Tc-14): −1.75
tissue uptake at 1 h ([3]; Blood, read-out: % iD/g Blood): 1.62 %ID/g
tissue uptake at 1 h ([3]; Bone, read-out: % iD/g Bone): 1.31 %ID/g
tissue uptake at 1 h ([3]; Heart, read-out: % iD/g Heart): 1.21 %ID/g
tissue uptake at 1 h ([3]; Intestine, read-out: % iD/g Intestine): 0.92 %ID/g
tissue uptake at 1 h ([3]; Liver, read-out: % iD/g Liver): 7.67 %ID/g
tissue uptake at 1 h ([3]; Lung, read-out: % iD/g Lung): 3.99 %ID/g
tissue uptake at 1 h ([3]; Pancreas, read-out: % iD/g Pancreas): 0.56 %ID/g
tissue uptake at 1 h ([3]; Stomach, read-out: % iD/g Stomach): 1.97 %ID/g
tissue uptake at 1 h ([3]; Tumor, read-out: % iD/g Tumor): 8.63 %ID/g
delivered whole-body dose ([4]; 604 MBq injected): 3.8 mSv
whole-body effective dose ([4]; patient, multiple myeloma): 6.3 μSv/MBq
specific dose, kidneys [4, 9]: 10 μGy/MBq
specific dose, liver [4, 9]: 14 μGy/MBq
specific dose, osteogenic cells [4, 9]: 13 μGy/MBq
specific dose, red bone marrow [4, 9]: 11 μGy/MBq
specific dose, spleen [4, 9]: 47 μGy/MBq
IC50 (CXCR4 [5]): 10.2 nM

CC[C@H](C)[C@@H]([C@@H](CC(=O)N1CCC[C@H]1[C@H](OC)[C@@H](C)C(=O)N[C@H](C)C(O)c1ccccc1)OC)N(C)C(=O)[C@@H](NC(=O)[C@H](C(C)C)N(C)C(=O)OCc1ccc(NC(=O)[C@H](CCCNC(N)=O)NC(=O)[C@@H](NC(=O)CCCCCN2C(=O)CC(SCC[C@@H](N)C(=O)NC(CCCNC(=N)N)C(=O)N[C@H](C)C(=O)Nc3ccc(C(=O)NCCC[C@@H]4C(=O)N[C@@H](CCCNC(=N)N)C(=O)N[C@H](Cc5ccc6ccccc6c5)C(=O)NCC(=O)N[C@@H](Cc5ccc(O)cc5)C(=O)N4C)cc3)C2=O)C(C)C)cc1)C(C)C (stereo partly drawn) [CXCR4-MMAE-2]
Internalization 2 h [% of bound peptide] ([1]; 2 h, 125I-labeled): 27.9 ± 1.14 % of bound peptide
logD7.4 [2]: 1.11 ± 0.08 (5)
fraction of dead cells (Raji cells; 96 h, 10, 20 and 40 nM, Raji vs U2932): considerably higher fraction of dead Raji cells compared to the U2932 cells
cell viability (Raji cells; Raji cells, 10, 20, 40, 100 nM, 24-96 h): decreased cell viabilities
cell viability (U2932 cells [6]): decreased cell viabilities
cells in G2/M-phase (U2932 cells [7]): higher number of cells stuck in the G2/M-phase
IC50 (CXCR4 [8]): 42.6 ± 8.3 nM

Reference: patent US20250288704A1, “CXCR4-LIGANDS FOR DIAGNOSTIC AND THERAPEUTIC USE AND PRECURSORS THEREOF” (priority 2021, published 2025)
